Measured values as given in patent US7728012B2, “Carboxamide compounds and their use as calpain inhibitors” (Abbott GmbH & Co. KG, priority 2006, dated 2010).

Key:
Format in all cases: biochemical
[1] = biological target: T1, cathepsin L isolated from human liver (Homo sapiens, UniProt P07711); experiment: Cathepsin L kinetic fluorescence enzyme inhibition assay; conditions: selectivity ratio versus calpain I
T1 construct: cathepsin L—isolated from human liver; purchased Calbiochem 219402; host or cells: human liver (tissue isolate)
T1 sequence (P07711 114-333): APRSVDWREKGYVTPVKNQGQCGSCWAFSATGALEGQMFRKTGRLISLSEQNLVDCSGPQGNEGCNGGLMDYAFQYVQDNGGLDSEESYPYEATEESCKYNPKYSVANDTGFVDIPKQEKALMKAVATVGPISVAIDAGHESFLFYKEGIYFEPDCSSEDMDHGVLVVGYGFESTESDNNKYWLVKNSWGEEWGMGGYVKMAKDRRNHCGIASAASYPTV
Description: (§1) The following solutions and buffers were employed: • HBS (for 40 ml): 800 μl M HEPES; 2.16 ml 100 mM KCl; 4.8 ml 1M NaCl; 3.59 ml 5% glucose; 60 μl μM MgSO4; 400 μl 100 mM Na pyruvate, 28.19 ml water; pH 7.2-7.5. • lysis buffer (for 20 ml): 400 μl M Tris pH 8.2; 2.74 ml 1M NaCl; 520 μl 0.5M EDTA; 2 ml 10% triton X-100; 0.8 ml (=1:25) CompletePlus (1 tablet/2 ml H2O); 200 μl 100 mM Pefabloc; 13.34 ml water, pH 8.2. • TBST (10×) (for 1 l): 100 mM Tris (12.1 g); 1.5M NaCl (87 g); 1% Tween 20 (10 g), adjusted to pH 8. I Enzyme Inhibition In Vitro: • Testing for blockade of the corresponding enzymic activities was carried out by means of kinetic fluorescence assays (excitation 390 nm, emission 460 nm). • Apparent Ki values were calculated from the experimentally determined IC50 values by the Cheng-Prussoff relation assuming a reversible competitive enzyme inhibition. The Km values of the substrates used under the assay conditions indicated above were: 90 μM (Z-Phe-Arg-AMC, cathepsin B), 10 μM (Z-Gly-Pro-Arg-AMC, cathepsin K), 2 μM (Z-Phe-Arg-AMC, cathepsin L), and 30 μM (Z-Val-Val-Arg-AMC, cathepsin S). • The indicated Ki values are averages of the inhibition constants calculated on the basis of 2 to 4 independent dose-effect plots.
(§2) The following assays were used: • 1. Calpain I: • 20 nM calpain-I—isolated from human erythrocytes (Calbiochem #208713), 100 μM Suc-Leu-Tyr-AMC (Bachem #1-1355) as substrate in buffer with 62 mM imidazole, 0.3 mM CaCl2, 0.10% CHAPS, 0.05% BSA, 1 mM DTT at pH 7.3 and room temperature. • 2. Cathepsin B: • 0.25 nM cathepsin B—isolated from human liver (Calbiochem #219362), 100 μM Z-Phe-Arg-AMC (Bachem #I-1160) as substrate 50 mM MES, 2 mM EDTA, 0.05% Brij 35, 2.5 mM L-cysteine, pH 6.0, room temperature. • 3. Cathepsin K: • 3 nM cathepsin K—activated from recombinant human procathepsin K from E. coli (Calbiochem #342001), 10 μM Z-Gly-Pro-Arg-AMC (Biomol #P-142) as substrate in 50 mM MES, 2 mM EDTA, 0.05% Brij 35, 2.5 mM L-cysteine, pH 6.0, room temperature. • 4. Cathepsin L: • 1 nM cathepsin L—isolated from human liver (Calbiochem #219402), 2 μM Z-Phe-Arg-AMC (Bachem #1-1160) as substrate in 50 mM MES, 2 mM EDTA, 0.05% Brij 35, 2.5 mM L-cysteine, pH 6.0, room temperature. • 5. Cathepsin S: • 0.5 nM recombinant human cathepsin S from E. coli (Calbiochem #219343), 20 μM Z-Val-Val-Arg-AMC (Bachem #1-1540) as substrate in 50 mM MES, 2 mM EDTA, 0.05% Brij 35, 2.5 mM L-cysteine, pH 6.0, room temperature. • The results of the in vitro determination are indicated in Table 1. The following abbreviations are used in Table 1: • The “Calpain activity” column, ++ stands for a calpain Ki (Ki(calpain)) of ≦40 nM and + means: 40 nM<Ki(Calpain)≦100 nM. • The “Sel. cat. B” column indicates the Ki(cathepsin B)/Ki(calpain) ratio. In this connection, ++ means a Ki(cathepsin B)/Ki(calpain) ratio of ≧30 and + means 10≦Ki(cathepsin B)/Ki(calpain)<30. • The “Sel. cat. K” column indicates the Ki(cathepsin K)/Ki(calpain) ratio. In this connection, ++ means a Ki(cathepsin K)/Ki(calpain) ratio of ≧30 and + means 10≦Ki(cathepsin K)/Ki(calpain)<30. • The “Sel. cat. L” column indicates the Ki(cathepsin L)/Ki(calpain) ratio. In this connection, ++ means a Ki(cathepsin L)/Ki(calpain) ratio of ≧50 and + means 30≦Ki(cathepsin L)/Ki(calpain)<50. • The “Sel. cat. S” column indicates the Ki(cathepsin S)/Ki(calpain) ratio. In this connection, ++ means a Ki(cathepsin S)/Ki(calpain) ratio of ≧100 and + means 50≦Ki(cathepsin S)/Ki(calpain)<100.

[2] = biological target: T2, calpain-I isolated from human erythrocytes (Homo sapiens, UniProt P07384); experiment: Calpain I kinetic fluorescence enzyme inhibition assay; conditions: apparent Ki from IC50 by Cheng-Prussoff; average of 2 to 4 dose-effect plots
T2 construct: calpain-I—isolated from human erythrocytes; purchased Calbiochem 208713; host or cells: human erythrocytes (tissue isolate)
T2 sequence (P07384 1-714): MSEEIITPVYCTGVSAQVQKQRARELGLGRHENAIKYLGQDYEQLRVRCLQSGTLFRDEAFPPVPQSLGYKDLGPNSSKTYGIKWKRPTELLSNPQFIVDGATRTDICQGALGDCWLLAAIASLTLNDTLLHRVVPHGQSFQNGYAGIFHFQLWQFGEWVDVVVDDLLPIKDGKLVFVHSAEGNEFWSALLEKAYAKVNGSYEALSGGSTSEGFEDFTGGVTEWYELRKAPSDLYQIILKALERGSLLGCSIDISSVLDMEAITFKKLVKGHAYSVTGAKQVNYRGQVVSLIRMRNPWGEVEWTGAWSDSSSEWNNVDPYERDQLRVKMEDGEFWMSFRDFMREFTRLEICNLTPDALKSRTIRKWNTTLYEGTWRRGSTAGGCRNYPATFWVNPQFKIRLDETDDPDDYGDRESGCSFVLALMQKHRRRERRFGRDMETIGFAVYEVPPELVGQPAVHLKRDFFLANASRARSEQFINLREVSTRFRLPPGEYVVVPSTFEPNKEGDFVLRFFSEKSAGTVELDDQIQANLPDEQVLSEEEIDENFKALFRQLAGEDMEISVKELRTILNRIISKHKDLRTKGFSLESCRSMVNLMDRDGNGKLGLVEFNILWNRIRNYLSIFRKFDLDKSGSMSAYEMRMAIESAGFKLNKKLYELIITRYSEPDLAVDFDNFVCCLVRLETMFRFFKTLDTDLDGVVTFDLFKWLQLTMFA
T2 sequence (P04632 1-268 partner): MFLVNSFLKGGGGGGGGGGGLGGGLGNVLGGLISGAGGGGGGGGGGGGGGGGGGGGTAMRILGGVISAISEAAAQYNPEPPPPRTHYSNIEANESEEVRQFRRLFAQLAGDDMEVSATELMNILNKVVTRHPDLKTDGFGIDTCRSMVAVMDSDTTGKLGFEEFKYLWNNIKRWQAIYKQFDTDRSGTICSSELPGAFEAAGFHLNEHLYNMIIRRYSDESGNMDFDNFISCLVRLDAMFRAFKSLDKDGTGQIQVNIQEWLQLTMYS
Description: as §1, §2

[3] = biological target: T3, recombinant human cathepsin S (Homo sapiens, UniProt P25774); experiment: Cathepsin S kinetic fluorescence enzyme inhibition assay; conditions: selectivity ratio versus calpain I
T3 construct: purchased Calbiochem 219343; host or cells: E. coli
T3 sequence (P25774 115-331): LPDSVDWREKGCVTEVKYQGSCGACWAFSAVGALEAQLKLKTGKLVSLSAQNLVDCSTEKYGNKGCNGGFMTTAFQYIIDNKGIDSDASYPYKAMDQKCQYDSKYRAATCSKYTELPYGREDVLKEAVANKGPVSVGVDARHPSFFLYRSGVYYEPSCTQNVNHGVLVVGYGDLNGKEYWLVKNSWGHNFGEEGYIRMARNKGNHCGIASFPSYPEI
Description: as §1, §2

Compound | Sel cat. L (Ki(cathepsin L)/Ki(calpain) ratio) [1] | Ki [2] [nM] | Sel cat. S (Ki(cathepsin S)/Ki(calpain) ratio) [3]
CCCCC(NC(=O)c1cccnc1-n1cnc(-c2ccccc2)c1)C(=O)C(N)=O (centres unmarked) [Example 2, N-{1-[Amino(oxo)acetyl]pentyl}-2-(4-phenyl-1H-imidazol-1-yl)nicotinamide] | ++ (Ki(cathepsin L)/Ki(calpain) ratio of ≧50) | ≤ 40 | –
CCN(CC)c1ccc(-c2ccn(-c3ncccc3C(=O)NC(Cc3ccccc3)C(=O)C(N)=O)n2)cc1 (centres unmarked) [Example 42, N-(3-Amino-1-benzyl-2,3-dioxopropyl)-2-{3-[4-(diethylamino)phenyl]-1H-pyrazol-1-yl}nicotinamide] | – | ≤ 40 | ++ (Ki(cathepsin S)/Ki(calpain) ratio of ≧100)
CCN(CC)Cc1ccc(-c2ccn(-c3ncccc3C(=O)NC(Cc3ccccc3)C(=O)C(N)=O)n2)cc1.Cl (centres unmarked) [Example 43, N-(3-Amino-1-benzyl-2,3-dioxopropyl)-2-(3-{4-[(diethylamino)methyl]phenyl}-1H-pyrazol-1-yl)nicotinamide hydrochloride] | – | 40 to 100 | ++ (Ki(cathepsin S)/Ki(calpain) ratio of ≧100)
CCCCC(NC(=O)c1cccnc1-n1ccc(-c2ccc(CN(CC)CC)cc2)n1)C(=O)C(N)=O (centres unmarked) [Example 44, N-{1-[Amino(oxo)acetyl]pentyl}-2-(3-{4-[(diethylamino)methyl]phenyl}-1H-pyrazol-1-yl)nicotinamide] | – | ≤ 40 | + (50≦Ki(cathepsin S)/Ki(calpain)<100)
CCCCC(NC(=O)c1cccnc1-n1ccc(-c2ccc(CN3CCOCC3)cc2)n1)C(=O)C(N)=O (centres unmarked) [Example 45, N-{1-[Amino(oxo)acetyl]pentyl}-2-{3-[4-(morpholin-4-ylmethyl)phenyl]-1H-pyrazol-1-yl}nicotinamide] | – | ≤ 40 | + (50≦Ki(cathepsin S)/Ki(calpain)<100)
NC(=O)C(=O)C(Cc1ccccc1)NC(=O)c1cccnc1-n1ccc(-c2ccc(CN3CCOCC3)cc2)n1 (centres unmarked) [Example 46, N-(3-Amino-1-benzyl-2,3-dioxopropyl)-2-{3-[4-(morpholin-4-ylmethyl)phenyl]-1H-pyrazol-1-yl}nicotinamide] | – | 40 to 100 | ++ (Ki(cathepsin S)/Ki(calpain) ratio of ≧100)
CCCCC(NC(=O)c1cccnc1-n1ccc(-c2ccc(N(CC)CC)cc2)n1)C(=O)C(N)=O (centres unmarked) [Example 47, N-{1-[Amino(oxo)acetyl]pentyl}-2-{3-[4-(diethylamino)phenyl]-1H-pyrazol-1-yl}nicotinamide] | – | ≤ 40 | ++ (Ki(cathepsin S)/Ki(calpain) ratio of ≧100)
Cl.NC(=O)C(=O)C(Cc1ccccc1)NC(=O)c1cccnc1-n1ccc(-c2cccc(CN3CCOCC3)c2)n1 (centres unmarked) [Example 52, N-(3-Amino-1-benzyl-2,3-dioxopropyl)-2-{3-[3-(morpholin-4-ylmethyl)phenyl]-1H-pyrazol-1-yl}nicotinamide hydrochloride] | – | 40 to 100 | ++ (Ki(cathepsin S)/Ki(calpain) ratio of ≧100)
NC(=O)C(=O)C(Cc1ccccc1)NC(=O)c1cccnc1-n1ccc(-c2ccc(-n3ccnc3)cc2)n1 (centres unmarked) [Example 101, N-[3-Amino-2,3-dioxo-1-(phenylmethyl)propyl]-2-{3-[4-(1H-imidazol-1-yl)phenyl]-1H-pyrazol-1-yl}pyridine-3-carboxamide] | – | ≤ 40 | ++ (Ki(cathepsin S)/Ki(calpain) ratio of ≧100)
NC(=O)C(=O)C(Cc1ccccc1)NC(=O)c1cccnc1-n1cc(-c2ccccc2F)cn1 (centres unmarked) [Example 104, N-[3-Amino-2,3-dioxo-1-(phenylmethyl)propyl]-2-[4-(2-fluorophenyl)-1H-pyrazol-1-yl]pyridine-3-carboxamide] | – | ≤ 40 | + (50≦Ki(cathepsin S)/Ki(calpain)<100)
NC(=O)C(=O)C(Cc1ccccc1)NC(=O)c1cccnc1-n1cc(CCN2CCOCC2)c(-c2ccc(F)cc2)n1 (centres unmarked) [Example 165, N-[3-Amino-2,3-dioxo-1-(phenylmethyl)propyl]-2-[3-(4-fluorophenyl)-4-(2-morpholin-4-ylethyl)-1H-pyrazol-1-yl]pyridine-3-carboxamide] | – | 40 to 100 | ++ (Ki(cathepsin S)/Ki(calpain) ratio of ≧100)
NC(=O)C(=O)C(Cc1ccccc1)NC(=O)c1cccnc1-n1cc(CN2CCOCC2)c(-c2cccc(C(F)(F)F)c2)n1 (centres unmarked) [Example 177, N-[3-Amino-2,3-dioxo-1-(phenylmethyl)propyl]-2-{4-(morpholin-4-ylmethyl)-3-[3-(trifluoromethyl)phenyl]-1H-pyrazol-1-yl}pyridine-3-carboxamide] | – | 40 to 100 | ++ (Ki(cathepsin S)/Ki(calpain) ratio of ≧100)
NC(=O)C(=O)C(Cc1ccccc1)NC(=O)c1cccnc1-n1cc(CN2CCCC2)c(-c2cccc(C(F)(F)F)c2)n1 (centres unmarked) [Example 178, N-[3-Amino-2,3-dioxo-1-(phenylmethyl)propyl]-2-{4-(pyrrolidin-1-ylmethyl)-3-[3-(trifluoromethyl)phenyl]-1H-pyrazol-1-yl}pyridine-3-carboxamide] | – | 40 to 100 | ++ (Ki(cathepsin S)/Ki(calpain) ratio of ≧100)
